Reference: article PMC9181852, “In Vivo and In Vitro Biological Evaluation and Molecular Docking Studies of Compounds Isolated from Micromeria biflora (Buch. Ham. ex D.Don) Benth” (Molecules, 2022)

Experiments:
[1] = Traction muscle relaxation model; type: in vivo, mice (Balb/c); conditions: dose 1 mg/kg
Method: (§1) Healthy mice (Balb/c) with weight ranging from 20 to 22 g and ages 9 to 10 weeks were used in this screening model. The grown animals were provided with standard laboratory conditions such as standard food and water ad libitum. The in vivo biological screening test was performed at the Department of Veterinary Medicine, College of Agriculture and Veterinary Medicine, Qassim University Buraydah, Saudi Arabia, as well as Swabi University, KP, Pakistan, according to published procedures.
A traction screening model was adapted to identify the relaxation of muscle for salicylalazine isolated from M. biflora according to the standard method. The traction model was considered by using metallic wires covered with rubber, and then the wires were linked with each other using a stand around 60 cm upstairs of the lab bench. The animals were distributed into different groups, with each group comprising six animals (n = 6). The various groups of animals were administered water, diazepam, and salicylalazine at different doses. After administration, all groups of animals were subjected to traction screening after 30, 60, and 90 min. […] Traction testing was repeatedly performed to calculate the muscle relaxant ability of salicylalazine as per the reported method.

Open field sedative test = type: in vivo, mice (Balb/c); conditions: dose 0.5 mg/kg, 30 min after administration
Method: as §1
The sedative potential of salicylalazine isolated from M. biflora was assessed as per the reported procedure. The animals were divided into different groups, as designated above. The apparatuses used in this screening contained an area of white wood with a 150 cm diameter bordered by stainless steel walls and was separated into 19 squares by black lines. Then, the open field apparatus was positioned inside the light and sound-reduced room. The different groups of animals were administered distilled water, diazepam, and salicylalazine at different doses. Thirty minutes after administration, all groups of animals were permitted to move from the center of the design box. […] Statistical calculations were performed by counting the number of lines crossed by every animal.

[2] = Inclined plane muscle relaxation model; type: in vivo, mice (Balb/c); conditions: dose 1 mg/kg
Method: as §1
An inclined plane screening procedure was adapted to identify the muscle relaxation effects of salicylalazine isolated from M. biflora according to a reported procedure. The inclined plane used in screening contained two plywood boards, and these boards were connected, where one board was at 60 0 from the base while the other one was aligned from the base. Various groups of animals were distributed into several groups; each group comprised six animals (n = 6). Animals in each group were administered water (10 mL/kg), standard drug (diazepam, 1 mg/kg), and salicylalazine at different doses of 2.5, 5, 10, 15, and 20 mg/kg, i.p. After various time intervals, such as 30, 60, and 90 min post-administration, animals were allowed on the higher part of the inclined plane for 30 s to drop or hang.

MDR2780AD = experiment: Anticancer MTT assay, MDR2780AD; type: cell-based; conditions: 24 h
HepG2 = experiment: Anticancer MTT assay, HepG2; type: cell-based; conditions: Homo sapiens, 24 h
Method: (§2) The MTT assay was used to assess the cytotoxicity of salicylalazine isolated from M. biflora as per the previously documented method. For the MTT assay, Gibco BRL was combined with 100 µg/mL of penicillin sodium salts, 10% FBS (Gibco), and sodium carbonate (2 mg/mL). The prepared medium was used to keep three human cancer cell lines: human hepatoma (HepG2), human A498, and renal NCI-h226 non-small cell lung). Mouse hepatocytes, including HepG2 and HepG-R, were planted in 96-well plates. The cell lines were preserved with salicylalazine (1.5–100 μM), hatched for 24 h, and then they were tracked using the MTT procedure^14. This method was used for all tested cell lines. The IC50 value of salicylalazine in different cell lines was calculated from the concentration-effect curves. The standard drug used in this experiment was paclitaxel.

A498 = experiment: Anticancer MTT assay, A498; type: cell-based; conditions: Homo sapiens, 24 h
Method: as §2

NCI-H226 = experiment: Anticancer MTT assay, NCI-H226; type: cell-based; conditions: Homo sapiens, 24 h
Method: as §2

Hot plate analgesic test = type: in vivo, mice (Balb/c); conditions: dose 10 mg/kg
Method: as §1
The analgesic effect of salicylalazine isolated from M. biflora was obtained with help of a hot plate according to the published method. The animals were distributed into different groups according to the previously reported method. A preliminary screening test was performed on the animals using a hot plate (Harvard apparatus) sustained at 55 ± 2 °C. […] Group I (positive control) was administered with the standard drug, while Group II (negative control) was administered with normal saline. The other groups of animals were administered with 2.5, 5, 10, 15, and 20 mg/kg (PO). […] To avoid tissue damage, a cut-off time of 30 s was used for every animal. The latency time was recorded for all groups (n = 6) at consistent intervals (30, 60, 90, and 120 min).

Structure (SMILES): CN1C(=O)CN=C(c2ccccc2)c2cc(Cl)ccc21 [Diazepam, reference compound]
- Traction Test (%) ([1]; 30 min): 100 ± 0.00%
- Traction Test (%) ([1]; 60 min): 100 ± 0.00%
- Traction Test (%) ([1]; 90 min): 100 ± 0.00%
- No of Lines Crossed (Open field sedative test): 9.01 ± 0.51
- Inclined Plane Test (%) ([2]; 30 min): 100 ± 0.00%
- Inclined Plane Test (%) ([2]; 60 min): 100 ± 0.00%
- Inclined Plane Test (%) ([2]; 90 min): 100 ± 0.00%

Structure (SMILES): CC(=O)O[C@H]1C(=O)[C@@]2(C)[C@H]([C@H](OC(=O)c3ccccc3)[C@]3(O)C[C@H](OC(=O)[C@H](O)[C@@H](NC(=O)c4ccccc4)c4ccccc4)C(C)=C1C3(C)C)[C@]1(OC(C)=O)CO[C@@H]1C[C@@H]2O [Paclitaxel, reference compound]
- IC50 (MDR2780AD): 0.18 ± 0.008 µM
- IC50 (HepG2): 7.51 ± 0.3 µM
- IC50 (A498): 95.23 ± 0.23 µM
- IC50 (NCI-H226): 61.29 ± 0.31 µM

Structure (SMILES): COc1cccc(C2(O)CCCCC2CN(C)C)c1 (stereo not drawn) [Tramadol, reference compound]
- Latency time on hot plate (Hot plate analgesic test; 30 min): 24.30 ± 0.07 s
- Latency time on hot plate (Hot plate analgesic test; 60 min): 25.90 ± 0.08 s
- Latency time on hot plate (Hot plate analgesic test; 90 min): 24.80 ± 0.14 s
- Latency time on hot plate (Hot plate analgesic test; 120 min): 24.68 ± 0.40 s
